The text below walks through data of patent publication US11972843B2, “Systems and methods for predicting adverse events and assessing level of sedation during medical procedures” (Massachusetts Institute of Technology, priority 2015, dated 2024).

This experiment concerns patients receiving propofol during procedural sedation. The note with it: 23 patients; per patient, average of the pharmacokinetic-model effect-site concentrations at end of procedure with all boluses and with the last bolus removed.

SMILES strings stand for the structures.

From the text: The start and end of the procedure were marked by the clinical staff who collected the data. The average of the “all drugs” value and the “last drug removed” value at the time of the end of the procedure constitutes, in this illustrative embodiment, an estimate of the titration threshold that the clinician aims to remain above between the start and end of the procedure.
The titration threshold for each patient was established as described in connection with FIG. 17, namely: the start and end of the procedure were marked by the clinical staff who collected the data; the end-procedure effect-site concentration, shown on the y-axis, of each patient was estimated with all drug administrations, and again without the final bolus administration; and the average of these two values was taken as the estimated titration threshold for that patient. […] The titration threshold is estimated at the time the procedure ends since the proceduralist deems it necessary to administer a final bolus in order to render the patient's sedation level sufficient to endure the procedure.

As to `CC(C)c1cccc(C(C)C)c1O` [propofol], the “mean of the estimated titration thresholds (end-procedure effect-site concentration)” value is 1.72 micrograms/milliliter.
